Results from patent publication US9532997B2, “Compositions and methods for promoting intestinal stem cell function” (Whitehead Institute for Biomedical Research, priority 2012, dated 2017).
Entries after “also recorded” stand apart in the source; their conditions may differ.

Key:
[1] = tested on: Lgr5hi ISCs combined with Paneth cells; assay: Organoid formation of Lgr5hi ISCs cocultured with Paneth cells from treated mice; format: in vivo; settings: for organoid formation of ISCs combined with Paneth cells from rapamycin-treated mice vs vehicle/AL Paneth cells: n=3-5, FIG. 3l, FIG. 13c
Excerpt: (§1) Mice were housed in the Unit for Laboratory Animal Medicine at the Whitehead Institute for Biomedical Research. Lgr5-EGFP-IRES-CreERT2 mice (Strain name: B6.129P2-Lgr5tm1(cre/ERT2)Cle/J, Stock Number: 008875) were purchased from Jackson Laboratories. UbiquitinC-CreERT2 mice were obtained from the Jackson Laboratory (Strain Name: B6; 129S-Tg(UBC-cre/ERT2)1Ejb/J, Stock Number: 007001). Rictor floxed mice were generated as described in^27 and backcrossed to C57BL/6 for at least 6 generations. TSC1^loxp/loxp mice were the generous gift of D. Kwiatkowski (Harvard Medical School) and backcrossed to C57BL/6 for at least 6 generations. Rosa26-CreERT2 mice (Rosa26 or R26) were obtained from the Jackson Laboratory (Strain 15 Name: B6.129-Gt(ROSA)26Sor^iml(cre/ERT2)Tyj/J, Stock Number 008463). CR was achieved by providing individual or paired mice a daily portion of a chow diet fortified with vitamins and minerals amounting to 60% of the daily food intake of their ad libitum counterparts^20. All adult mice used in CR experiments were between the ages of 10 to 24 weeks and were sacrificed prior to their daily feeding. Rictor or TSC1 was excised by treatment with tamoxifen suspended in corn or sunflower seed oil (Spectrum) at a concentration of 10 mg/mL, and 200 μl per 25 g of body weight was injected intraperitoneally into mice once daily for 5-7 days. […] Mice were allowed to recover for at least 7 days after the last tamoxifen injection prior to any experiments. In vivo fate mapping in Lgr5-EGFP-IRES-reERT2; Rosa26loxpstoploxp-LacZ compound mice was done with a single injection of tamoxifen given at 200 μl per 25 g. As described previously^28, Rapamycin (LC Laboratories) was administered by intraperitoneal injection for 7 to 28 consecutive doses at 4 mg/kg. It was reconstituted in absolute ethanol at 10 mg/ml and diluted in 5% Tween-80 (Sigma) and 5% PEG-400 (Hampton Research) before injection. The final volume of all injections was 200 μl. Regular insulin (Lilly) was administered at 0.75 U/kg diluted in PBS 20 minutes prior to sacrificing fasted mice.
Small intestines were removed and the fat/mesentery was dissected away. The intestinal lumen was washed with ice cold PBS (Mg—/Ca—) using a 18 G feeding needle (Roboz FN-7905) until the intestines appeared white/pink. They were then opened longitudinally. The mucous was removed by gently rubbing the intestine between fingers in cold PBS. The intestines were cut into 3 to 5 mm fragments and placed into 50 ml conical tubes that were fill with ice cold 30 ml of PBS (Mg—/Ca—)/EDTA (10 mM). The samples were incubated and shook intermittently on ice for 30 minutes continuously discarding and replacing (at least 3 times) the supernatant. The fragments were then continually resuspended with ice cold 30 ml PBS (Mg—/Ca—)/EDTA (10 mM) and intermittently shook on ice for 10 minutes, discarding the supernatant again for 3 times. The fragments were resuspended again with ice cold 30 ml PBS (Mg—/Ca—)/EDTA (10 mM) and incubated and intermittently shook while waiting on ice for 20 to 40 minutes. The samples were then triturated with a 10 ml pipette 1 to 2 times, and the contents were filtered twice through a 70-μm mesh (BD Falcon) into a 50 ml conical tube to remove villous material and tissue fragments. […] Crypts were removed from this step for crypt culture experiments and embedded in matrigel with crypt culture media. For ISC isolation, the crypt suspensions were centrifuged for 5 minutes at 250 g (4 C or room temperature). The pellets were gently resuspended in 1.0 ml of undiluted TrypLE Express (Invitrogen)+120 μl of DNase I (10 U/μl, Roche) and transferred to 15 ml conical tubes. The samples were incubated in a 32° C. water bath for 1.25 to 2 minutes, were not titurated, and were then placed on ice. 12 ml of cold SMEM was added to each sample and were gently triturated twice. The samples were then centrifuged for 5 minutes at 250 g.

intestinal crypts = assay: Organoid formation (clonogenicity) of intestinal crypts isolated from treated mice; format: in vivo
Excerpt: as §1
Small intestines were removed and the fat/mesentery was dissected away. The intestinal lumen was washed with ice cold PBS (Mg—/Ca—) using a 18 G feeding needle (Roboz FN-7905) until the intestines appeared white/pink. They were then opened longitudinally. The mucous was removed by gently rubbing the intestine between fingers in cold PBS. The intestines were cut into 3 to 5 mm fragments and placed into 50 ml conical tubes that were fill with ice cold 30 ml of PBS (Mg—/Ca—)/EDTA (10 mM). The samples were incubated and shook intermittently on ice for 30 minutes continuously discarding and replacing (at least 3 times) the supernatant. […]

cleaved caspase 3 = assay: Enterocyte apoptosis, cleaved caspase 3 immunostain; format: in vivo, mice; settings: n=3 per group, FIG. 7
Method: (§2) Tissues were fixed in 10% formalin, paraffin embedded, and sectioned. Antigen retrieval was performed with Borg Decloaker RTU solution (Biocare Medical) in a pressurized Decloaking Chamber (Biocare Medical) for 3 minutes. Antibodies: rat anti-BrdU (1:2000; Abeam 6326), rabbit phospho-S6 Ser235/236 (1:500, CST 4858), rabbit cleaved caspase 3 (1:500; CST 9664), rabbit chromogranin A (1:3000, Abeam 15160), rabbit Lysozyme (1:2000; Thermo), rabbit Bst-1 (1:1000, Abeam 74301) and mouse Bst-1 (1:100 to 500, BD Pharmingen). For mouse Bst-1, the M.O.M (mouse on mouse) kit was used according to the manufacturer's instructions (Vector labs PK-2200). Biotin conjugated secondary donkey anti-rabbit or rat antibodies were used from Jackson ImmunoResearch. The Vectastain Elite ABC immunoperoxidase detection kit (Vector Labs PK-6101) followed by Dako Liquid DAB+ Substrate (Dako) was used for visualization. For immunofluorescence Alexa Fluor 568 secondary antibodies (Invitrogen) were used. All antibody incubations were performed with Common Antibody Diluent (Biogenex).

Bst-1 = Bst-1 protein expression by immunoblots of crypts and immunostains of Paneth cells; format: in vivo, mice; settings: FIG. 4c
Method: as §2
Antibodies: rabbit anti phospho-T389 S6K1, phospho-S240/244 S6, S6K1, and S6 from CST; rabbit Bst-1 (ab74301) from Abeam; mouse anti_-actin (clone AC-15) from Sigma. […] Proteins extracts were denatured by the addition of sample buffer, boiled for […], resolved by SDS-PAGE, and analyzed by immunoblotting.

Lgr5^hi ISCs = assay: Frequency of Lgr5hi ISCs by flow cytometry in rapamycin-treated mice; format: in vivo; settings: Rapamycin 4 mg/kg daily i.p., 4 weeks, n=13-14, FIG. 3g
Excerpt: Mice were housed in the Unit for Laboratory Animal Medicine at the Whitehead Institute for Biomedical Research. Lgr5-EGFP-IRES-CreERT2 mice (Strain name: B6.129P2-Lgr5tm1(cre/ERT2)Cle/J, Stock Number: 008875) were purchased from Jackson Laboratories. UbiquitinC-CreERT2 mice were obtained from the Jackson Laboratory (Strain Name: B6; 129S-Tg(UBC-cre/ERT2)1Ejb/J, Stock Number: 007001). Rictor floxed mice were generated as described in^27 and backcrossed to C57BL/6 for at least 6 generations. TSC1^loxp/loxp mice were the generous gift of D. Kwiatkowski (Harvard Medical School) and backcrossed to C57BL/6 for at least 6 generations. Rosa26-CreERT2 mice (Rosa26 or R26) were obtained from the Jackson Laboratory (Strain 15 Name: B6.129-Gt(ROSA)26Sor^iml(cre/ERT2)Tyj/J, Stock Number 008463). CR was achieved by providing individual or paired mice a daily portion of a chow diet fortified with vitamins and minerals amounting to 60% of the daily food intake of their ad libitum counterparts^20. All adult mice used in CR experiments were between the ages of 10 to 24 weeks and were sacrificed prior to their daily feeding. Rictor or TSC1 was excised by treatment with tamoxifen suspended in corn or sunflower seed oil (Spectrum) at a concentration of 10 mg/mL, and 200 μl per 25 g of body weight was injected intraperitoneally into mice once daily for 5-7 days. […]

[2] = tested on: enteroendocrine and goblet cells; assay: Enteroendocrine (chromogranin A) and goblet cell (Alcian blue) differentiation; format: in vivo, mice; settings: FIG. 6a-b
Method: as §2

With `CO[C@H]1C[C@@H]2CC[C@@H](C)[C@@](O)(O2)C(=O)C(=O)N2CCCC[C@H]2C(=O)O[C@H]([C@H](C)C[C@@H]2CC[C@@H](O)[C@H](OC)C2)CC(=O)[C@H](C)/C=C(\C)[C@@H](O)[C@@H](OC)C(=O)[C@H](C)C[C@H](C)/C=C/C=C/C=C/1C` [Rapamycin, sirolimus] the “organoids per AL Lgr5hi ISC mixed with Paneth cells from treated mice, increase vs vehicle” value ([1]; 4 mg/kg) was ~2 fold, the “effect of combination of CR and rapamycin in ISC-Paneth cell coculture” value ([1]; CR+R treated mice, FIG. 3j) was “non-additive” and the “direct effect on ISC function (clonogenicity of ISCs from treated vs vehicle mice)” value ([1]; FIG. 3l) was “no direct effect on ISC function”. For the same compound, the “secondary organoid bodies derived from rapamycin-treated Paneth cells vs vehicle” value ([1]; FIG. 3m) was “larger and more complex”, the “stability of augmented capacity of Paneth cells to promote ISC self-renewal” value ([1]; Paneth cells placed in nutrient rich media that activates mTORC1) was “maintain their augmented capacity to promote ISC self-renewal” and the “organoid formation of ISCs combined with Paneth cells from rapamycin-treated mice vs vehicle/AL Paneth cells” value [1] was “significantly increased”. The “organoid formation of ISCs combined with Paneth cells from rapamycin-treated mice vs vehicle/AL Paneth cells” value ([1]; listed as rapamycin) was “prominent increase; also recorded: significantly increased”, the “effect of combination of CR and rapamycin on crypt organoid formation” value (intestinal crypts; CR+R treated mice, FIG. 3i) was “non-additive” and the “organoids per intestinal crypt, increase vs vehicle-treated mice” value (intestinal crypts; crypts isolated from mice given 4 mg/kg daily, n=3-5, FIG. 3i) was ~2 fold. For the same compound, the “organoid body formation of crypts compared with CR” value (intestinal crypts; mice treated for 1 week, FIG. 3i) was “as capable of forming organoid bodies as those from mice on CR”, the “crypt clonogenicity after Rictor deletion (mTORC2 independence)” value (intestinal crypts; rapamycin 1 to 3 weeks after Rictor-deletion in Rictorfl/fl UBC-CreERT2 mice vs WT, FIG. 3k) was “increased the clonogenicity of crypts irrespective of whether they were isolated from adult intestines expressing or lacking Rictor; also recorded: increased crypt clonogenicity to a similar extent as those isolated from rapamycin treated wild-type (WT) mice” and the “cleaved caspase 3 (enterocyte apoptosis) vs AL controls” value (cleaved caspase 3) was “no increase”. For the same compound, the Bst-1 protein expression (Bst-1; crypts (immunoblots) and Paneth cells (immunostains) of treated mice, d) was “increased”, the “SDS-PAGE mobility of Bst-1” value (Bst-1; immunoblots of crypts) was “affected the SDS-PAGE mobility of Bst-1” and the “increase in frequency of ISCs vs vehicle” value (Lgr5^hi ISCs) was “more than 1.5 fold”. The “effects on enteroendocrine and goblet cell differentiation” value [2] was “minimal effects”.
